Laboratory results as given in patent US5968910A, “Compositions containing two or three inhibitors of different HIV reverse transcriptases” (priority 1994, dated 1999).
Converted amounts (≈) assume the structure as drawn.

How the values were obtained:
Assay type in all cases: cell-based
HIV-1(IIIB) (WT) = assay: microbe, parasite or virus in culture
Method: (§1) CEM cells were suspended at 250,000 cells per ml of culture medium and infected with wild-type HIV-I(IIIB) or mutant HIV-1 strains at 100 50% cell culture infective doses per ml. Then 100 μl of the infected cell suspensions was added to 200-μl microtiter plate wells containing 100 μl of an appropriate dilution of the test compounds. After 4 days incubation at 37° C., the cell cultures were examined for syncytium formation.

HIV-1/B 101Glu = assay: Sensitivity of mutant HIV-1 strain in CEM cell cultures; conditions: Table 5
Method: as §1

HIV-1/I(0.1) 103-Asn = assay: as above; conditions: Table 5
Method: as §1

HIV-1/II(0.1) 100-Ile = assay: as above; conditions: Table 5
Method: as §1

HIV-1/III(0.1) 103-Asn = assay: as above; conditions: Table 5
Method: as §1

HIV-1/IV(0.1) 103-Thr = assay: as above; conditions: Table 5
Method: as §1

[1] = system: HIV-1/V(0.1) 101-Ile + 141-Glu; assay: as above; conditions: Table 5
Method: as §1

HIV-1/V(0.5) 103-Asn = assay: as above; conditions: Table 5
Method: as §1

HIV-1 = assay: Breakthrough of mutant HIV-1 strains in CEM cell cultures, single drugs and double/triple combinations
Method: The culture medium consisted of RPMI 1640 containing 10% fetal bovine serum, 2 mM L-glutamine, and 0.075% NaHCO3. The multiplicity of the initial infection was ~1000 times the CCID50 (50% cell culture infective dose). Passages were performed every 3 to 4 days by adding 0.5 to 1.0 ml of the infected culture supernatant to 5 ml of a suspension containing 4×10^5 uninfected CEM cells per ml. Syncytium formation was used as a parameter of virus breakthrough in the cell cultures. In the drug combination experiments, the compounds were combined at the same initial concentrations as used for the two lowest concentrations in the single-drug experiments.
Compound IV, BHAP and TSAO-m^3 T were added to HIV-1-infected CEM cell cultures at 0.04, 0.10 and 0.25 ug/ml (Compound IV and BHAP) or 1.0, 2.5 and 5.0 μg/ml (TSAO-m^3 T). In addition, various double- and triple-drug combinations of Compound IV, BHAP and TSAO-m^3 T were performed, combining these inhibitors at their lowest (0.04 μg/ml) or intermediary (0.1 μg/ml) concentration as used in the single-drug experiments.

Compound: CC(C)Nc1cccnc1N1CCN(C(=O)c2cc3cc(NS(C)(=O)=O)ccc3[nH]2)CC1 [BHAP U90152]
- EC50 (HIV-1(IIIB) (WT)): 0.010 µg/mL (≈ 0.0219 µM)
- EC50 (HIV-1/B 101Glu): 1.0 µg/mL (≈ 2.19 µM)
- EC50 (HIV-1/I(0.1) 103-Asn): 0.25 µg/mL (≈ 0.548 µM)
- EC50 (HIV-1/II(0.1) 100-Ile): 0.67 µg/mL (≈ 1.47 µM)
- EC50 (HIV-1/III(0.1) 103-Asn): 0.05 µg/mL (≈ 0.11 µM)
- EC50 (HIV-1/IV(0.1) 103-Thr): 0.47 µg/mL (≈ 1.03 µM)
- EC50 [1]: 0.10 µg/mL (≈ 0.219 µM)
- EC50 (HIV-1/V(0.5) 103-Asn): 0.50 µg/mL (≈ 1.1 µM)
- HIV-1-induced syncytium formation in CEM cells (HIV-1; single drug 0.04 μg/ml, day 4 post infection): 0 percentage of control
- HIV-1-induced syncytium formation in CEM cells (HIV-1; single drug 0.04 μg/ml, day 7 post infection): 12.5 percentage of control
- HIV-1-induced syncytium formation in CEM cells (HIV-1; single drug 0.04 μg/ml, day 11 post infection): 75 percentage of control
- HIV-1-induced syncytium formation in CEM cells (HIV-1; single drug 0.04 μg/ml, day 14 post infection): 100 percentage of control
- HIV-1-induced syncytium formation in CEM cells (HIV-1; single drug 0.04 μg/ml, day 18 post infection): 100 percentage of control
- HIV-1-induced syncytium formation in CEM cells (HIV-1; single drug 0.04 μg/ml, day 21 post infection): 100 percentage of control
- HIV-1-induced syncytium formation in CEM cells (HIV-1; single drug 0.04 μg/ml, day 25 post infection): 100 percentage of control
- HIV-1-induced syncytium formation in CEM cells (HIV-1; single drug 0.04 μg/ml, day 28 post infection): 100 percentage of control
- HIV-1-induced syncytium formation in CEM cells (HIV-1; single drug 0.04 μg/ml, day 32 post infection): 100 percentage of control
- HIV-1-induced syncytium formation in CEM cells (HIV-1; single drug 0.04 μg/ml, day 35 post infection): 100 percentage of control
- HIV-1-induced syncytium formation in CEM cells (HIV-1; single drug 0.04 μg/ml, day 39 post infection): 100 percentage of control
- HIV-1-induced syncytium formation in CEM cells (HIV-1; single drug 0.04 μg/ml, day 42 post infection): 100 percentage of control
- HIV-1-induced syncytium formation in CEM cells (HIV-1; single drug 0.04 μg/ml, day 46 post infection): 100 percentage of control
- HIV-1-induced syncytium formation in CEM cells (HIV-1; single drug 0.04 μg/ml, day 49 post infection): 100 percentage of control
- HIV-1-induced syncytium formation in CEM cells (HIV-1; single drug 0.04 μg/ml, day 53 post infection): 100 percentage of control
- HIV-1-induced syncytium formation in CEM cells (HIV-1; single drug 0.04 μg/ml, day 56 post infection): 100 percentage of control
- HIV-1-induced syncytium formation in CEM cells (HIV-1; single drug 0.04 μg/ml, day 60 post infection): 100 percentage of control
- HIV-1-induced syncytium formation in CEM cells (HIV-1; single drug 0.04 μg/ml, day 64 post infection): 100 percentage of control
- HIV-1-induced syncytium formation in CEM cells (HIV-1; single drug 0.04 μg/ml, day 67 post infection): 100 percentage of control
- HIV-1-induced syncytium formation in CEM cells (HIV-1; single drug 0.04 μg/ml, day 71 post infection): 100 percentage of control
- HIV-1-induced syncytium formation in CEM cells (HIV-1; single drug 0.04 μg/ml, day 74 post infection): 100 percentage of control
- HIV-1-induced syncytium formation in CEM cells (HIV-1; single drug 0.04 μg/ml, day 77 post infection): 100 percentage of control
- HIV-1-induced syncytium formation in CEM cells (HIV-1; single drug 0.10 μg/ml, day 4 post infection): 0 percentage of control
- HIV-1-induced syncytium formation in CEM cells (HIV-1; single drug 0.10 μg/ml, day 7 post infection): 0 percentage of control
- HIV-1-induced syncytium formation in CEM cells (HIV-1; single drug 0.10 μg/ml, day 11 post infection): 0 percentage of control
- HIV-1-induced syncytium formation in CEM cells (HIV-1; single drug 0.10 μg/ml, day 14 post infection): 12.5 percentage of control
- HIV-1-induced syncytium formation in CEM cells (HIV-1; single drug 0.10 μg/ml, day 18 post infection): 75 percentage of control
- HIV-1-induced syncytium formation in CEM cells (HIV-1; single drug 0.10 μg/ml, day 21 post infection): 100 percentage of control
- HIV-1-induced syncytium formation in CEM cells (HIV-1; single drug 0.10 μg/ml, day 25 post infection): 100 percentage of control
- HIV-1-induced syncytium formation in CEM cells (HIV-1; single drug 0.10 μg/ml, day 28 post infection): 100 percentage of control
- HIV-1-induced syncytium formation in CEM cells (HIV-1; single drug 0.10 μg/ml, day 32 post infection): 100 percentage of control
- HIV-1-induced syncytium formation in CEM cells (HIV-1; single drug 0.10 μg/ml, day 35 post infection): 100 percentage of control
- HIV-1-induced syncytium formation in CEM cells (HIV-1; single drug 0.10 μg/ml, day 39 post infection): 100 percentage of control
- HIV-1-induced syncytium formation in CEM cells (HIV-1; single drug 0.10 μg/ml, day 42 post infection): 100 percentage of control
- HIV-1-induced syncytium formation in CEM cells (HIV-1; single drug 0.10 μg/ml, day 46 post infection): 100 percentage of control
- HIV-1-induced syncytium formation in CEM cells (HIV-1; single drug 0.10 μg/ml, day 49 post infection): 100 percentage of control
- HIV-1-induced syncytium formation in CEM cells (HIV-1; single drug 0.10 μg/ml, day 53 post infection): 100 percentage of control
- HIV-1-induced syncytium formation in CEM cells (HIV-1; single drug 0.10 μg/ml, day 56 post infection): 100 percentage of control
- HIV-1-induced syncytium formation in CEM cells (HIV-1; single drug 0.10 μg/ml, day 60 post infection): 100 percentage of control
- HIV-1-induced syncytium formation in CEM cells (HIV-1; single drug 0.10 μg/ml, day 64 post infection): 100 percentage of control
- HIV-1-induced syncytium formation in CEM cells (HIV-1; single drug 0.10 μg/ml, day 67 post infection): 100 percentage of control
- HIV-1-induced syncytium formation in CEM cells (HIV-1; single drug 0.10 μg/ml, day 71 post infection): 100 percentage of control
- HIV-1-induced syncytium formation in CEM cells (HIV-1; single drug 0.10 μg/ml, day 74 post infection): 100 percentage of control
- HIV-1-induced syncytium formation in CEM cells (HIV-1; single drug 0.10 μg/ml, day 77 post infection): 100 percentage of control
- HIV-1-induced syncytium formation in CEM cells (HIV-1; single drug 0.25 μg/ml, day 4 post infection): 0 percentage of control
- HIV-1-induced syncytium formation in CEM cells (HIV-1; single drug 0.25 μg/ml, day 7 post infection): 0 percentage of control
- HIV-1-induced syncytium formation in CEM cells (HIV-1; single drug 0.25 μg/ml, day 11 post infection): 0 percentage of control
- HIV-1-induced syncytium formation in CEM cells (HIV-1; single drug 0.25 μg/ml, day 14 post infection): 6.25 percentage of control
- HIV-1-induced syncytium formation in CEM cells (HIV-1; single drug 0.25 μg/ml, day 18 post infection): 50 percentage of control
- HIV-1-induced syncytium formation in CEM cells (HIV-1; single drug 0.25 μg/ml, day 21 post infection): 100 percentage of control
- HIV-1-induced syncytium formation in CEM cells (HIV-1; single drug 0.25 μg/ml, day 25 post infection): 100 percentage of control
- HIV-1-induced syncytium formation in CEM cells (HIV-1; single drug 0.25 μg/ml, day 28 post infection): 100 percentage of control
- HIV-1-induced syncytium formation in CEM cells (HIV-1; single drug 0.25 μg/ml, day 32 post infection): 100 percentage of control
- HIV-1-induced syncytium formation in CEM cells (HIV-1; single drug 0.25 μg/ml, day 35 post infection): 100 percentage of control
- HIV-1-induced syncytium formation in CEM cells (HIV-1; single drug 0.25 μg/ml, day 39 post infection): 100 percentage of control
- HIV-1-induced syncytium formation in CEM cells (HIV-1; single drug 0.25 μg/ml, day 42 post infection): 100 percentage of control
- HIV-1-induced syncytium formation in CEM cells (HIV-1; single drug 0.25 μg/ml, day 46 post infection): 100 percentage of control
- HIV-1-induced syncytium formation in CEM cells (HIV-1; single drug 0.25 μg/ml, day 49 post infection): 100 percentage of control
- HIV-1-induced syncytium formation in CEM cells (HIV-1; single drug 0.25 μg/ml, day 53 post infection): 100 percentage of control
- HIV-1-induced syncytium formation in CEM cells (HIV-1; single drug 0.25 μg/ml, day 56 post infection): 100 percentage of control
- HIV-1-induced syncytium formation in CEM cells (HIV-1; single drug 0.25 μg/ml, day 60 post infection): 100 percentage of control
- HIV-1-induced syncytium formation in CEM cells (HIV-1; single drug 0.25 μg/ml, day 64 post infection): 100 percentage of control
- HIV-1-induced syncytium formation in CEM cells (HIV-1; single drug 0.25 μg/ml, day 67 post infection): 100 percentage of control
- HIV-1-induced syncytium formation in CEM cells (HIV-1; single drug 0.25 μg/ml, day 71 post infection): 100 percentage of control
- HIV-1-induced syncytium formation in CEM cells (HIV-1; single drug 0.25 μg/ml, day 74 post infection): 100 percentage of control
- HIV-1-induced syncytium formation in CEM cells (HIV-1; single drug 0.25 μg/ml, day 77 post infection): 100 percentage of control
- virus breakthrough delayed till day (HIV-1; single drug, higher concentrations): 14 days
